Results filed as inconclusive are left out. Activity calls are given as the source filed them. The rule behind the calls is not given here.
Assays:
[1] = caspase 3/7 activation in SNB19 cells, mechanism study for HRAS target identification, cell-based, luminescence, several timepoints, dry powder (AID 720614); details: SNB19 (HRAS) caspase 3/7 apoptosis luminescence, multiple timepoints; for caspase 3/7 activation: at 35 µM (top of the series); for max activity: measured here: timepoint 3 max caspase activation, stronger effect = higher value
[2] = tested on: SNB19 (HRAS) caspase 3/7 apoptosis luminescence, multiple timepoints; assay: as above

Compound | caspase 3/7 activation [1] | max activity ([1]; at 16 µM) | also measured
CCC(=O)N(c1ccc(OC)c(Cl)c1)C(C(=O)NCCc1ccccc1)c1cccs1 (stereo unspecified) | -10.3% (inactive) | 18.7% | 
Cc1onc(C(=O)N2CCN(C(c3ccc(Cl)cc3)c3ccc(OCCOCCOCCNC(=O)OC(C)(C)C)cc3)CC2)c1[N+](=O)[O-] (stereo unspecified) | 12.2% (inactive) |  | max activity ([1]; at 0.26 µM): 25.3%
Cc1onc(C(=O)N2CCN(C(c3ccc(Cl)cc3)c3ccc(Cl)cc3)CC2)c1[N+](=O)[O-] | 12.2% (inactive) | -17.3% | 
CO[C@H]1C[C@@H]2CC[C@@H](C)[C@@](O)(O2)C(=O)C(=O)N2CCCC[C@H]2C(=O)O[C@H]([C@H](C)C[C@@H]2CC[C@@H](O)[C@H](OC)C2)CC(=O)[C@H](C)/C=C(\C)[C@@H](O)[C@@H](OC)C(=O)[C@H](C)C[C@H](C)/C=C/C=C/C=C/1C | 2.8% (inactive) |  | max activity ([1]; at 0.008 µM): 32%; AC40 ([2]; measured here: timepoint 2 caspase activation): > 35 µM
CC(C)(C)OC(=O)NCCOCCOCCOc1ccc(N(C(=O)CCl)C(C(=O)NCCc2ccccc2)c2cccs2)cc1Cl (stereo unspecified) |  |  | max activity ([1]; at 0.5 µM): 18.7%; AC40 [2]: > 35 µM (inactive)

Source: PubChem BioAssay AID720614 (Broad Institute, 2013)
